Test system: primary DRG neuron
Test: Axon growth of primary DRG neurons (immunofluorescence, Neuro J)
Assay type: cell-based, C57BL/6J mice
Conditions: 24 hours; for fold induction at 10 µM: Mus musculus, multiple of total axon length of a single DRG neuron relative to blank control group
Experimental: Diabetic peripheral neuropathy involved a sensory neuron first, and a main pathological change was axonal atrophy and degeneration, or even disappearance. […] Therefore, the compounds in the examples were added with the primary DRG neuron to incubate for a certain period of time, then the axon growth of the DRG neuron was detected by immunofluorescence, and an axon length was quantified by Neuro J, so as to evaluate the promotion effect of the compound on the axon growth of the peripheral sensory neuron.
Primary antibodies of mice anti-β-tubulin III used for fluorescent staining were purchased from Sigma Company, cell culture reagents were all purchased from Gibco Company, and DRG neuronal cells were taken from C57BL/6J mice. Specific experimental steps were as follows: fresh DRG of the C57 mice was extracted to digest into a single-cell suspension and then inoculated into a culture plate for adherent culture overnight, with vinblastine as a positive drug, the to-be-detected compounds S1 to S87 ([…]) synthesized in the above examples were given to incubate for 24 hours, then an original culture medium was removed, 4% paraformaldehyde was added into each well to fix for 15 minutes after PBS washing, the mixture was permeabilized with 0.3% TritonX-100 for 5 minutes and sealed at room temperature with 4% BSA for 1 hour, a primary antibody (1:1000) was incubated at 4° C. overnight, a goat anti-mouse fluorescent secondary antibody (1:300) was incubated at room temperature in the dark for 1 hour, and a sealed slide was imaged by a fluorescence microscope (Leica). According to the image, a total axon length of a single DRG neuron was tracked by a Neuro J plug-in in Image J software, and a multiple of the total axon length relative to that of the blank control group was calculated.

Structure (SMILES)	fold induction at 10 µM	Promotion of axon growth of the primary DRG neuron compared with the positive drug (in words) (10 μm)
CC[C@@]12C=C(C(=O)N[C@@H](C)C(=O)OCCOCCOCCOCCO)n3c4c(c5ccccc53)CCN(CCC1)[C@H]42 [Compound S29]	12.5	–
CC[C@@]12C=C(C(=O)N[C@@H](CC(C)C)C(=O)OCCOCCOCCOCCOC)n3c4c(c5ccccc53)CCN(CCC1)[C@H]42 [Compound S13]	11.6	–
CC[C@@]12C=C(C(=O)N[C@@H](CC(C)C)C(=O)O)n3c4c(c5ccccc53)CCN(CCC1)[C@H]42 [Compound S67]	11.3	–
CC[C@@]12C=C(C(=O)N[C@@H](CC(=O)O)C(=O)OCCOCCOCCOCCO)n3c4c(c5ccccc53)CCN(CCC1)[C@H]42 [Compound S42]	10.3	–
CC[C@@]12C=C(C(=O)NCC(=O)OC)n3c4c(c5ccccc53)CCN(CCC1)[C@H]42 [Compound S83]	12.7	–
CC[C@@]12C=C(C(=O)OCCC(=O)OCCOCCOCCO)n3c4c(c5ccccc53)CCN(CCC1)[C@H]42 [Compound S57]	10.8	–
CC[C@@]12C=C(C(=O)N[C@H](C(=O)OC)C(C)C)n3c4c(c5ccccc53)CCN(CCC1)[C@H]42 [Compound S84]	11	–
CCC(C)[C@H](NC(=O)C1=C[C@]2(CC)CCCN3CCc4c(n1c1ccccc41)[C@@H]32)C(=O)OCCOCCOCCOCCO (stereo partly drawn) [Compound S32]	12.3	–
CC[C@@]12C=C(C(=O)N[C@@H](CO)C(=O)O)n3c4c(c5ccccc53)CCN(CCC1)[C@H]42 [Compound S68]	11	–
CC[C@@]12C=C(C(=O)NCC(=O)N[C@@H](CC(C)C)C(=O)OC)n3c4c(c5ccccc53)CCN(CCC1)[C@H]42 [Compound S86]	11	–
CC[C@@]12C=C(C(=O)NCC(=O)OCCOCCOCCOCCOCCOCCO)n3c4c(c5ccccc53)CCN(CCC1)[C@H]42 [Compound S28]	12.2	–
CC[C@@]12C=C(C(=O)N[C@@H](CC(C)C)C(=O)OCCOCCOCCOCCO)n3c4c(c5ccccc53)CCN(CCC1)[C@H]42 [Compound S31]	11.8	–
CC[C@@]12C=C(C(=O)NCC(=O)OCCOCCOCCOC)n3c4c(c5ccccc53)CCN(CCC1)[C@H]42 [Compound S2]	9.5	–
CC[C@@]12C=C(C(=O)N[C@@H](Cc3ccccc3)C(=O)OCCOCCOCCOCCO)n3c4c(c5ccccc53)CCN(CCC1)[C@H]42 [Compound S33]	10.9	–
CC[C@@]12C=C(C(=O)N[C@@H](CC(N)=O)C(=O)OCCOCCOCCOCCOC)n3c4c(c5ccccc53)CCN(CCC1)[C@H]42 [Compound S16]	11.2	–
CC[C@@]12C=C(C(=O)NCC(=O)OCCOCCOCCOCCOCCO)n3c4c(c5ccccc53)CCN(CCC1)[C@H]42 [Compound S27]	12.9	more outstanding effect
CC[C@@]12C=C(C(=O)NCC(=O)OCCOCCOCCO)n3c4c(c5ccccc53)CCN(CCC1)[C@H]42 [Compound S25]	12.3	–

Reference: US12600724B2, “Indole alkaloid and preparation method and use thereof” (NANJING UNIVERSITY OF CHINESE MEDICINE, priority 2022, dated 2026)
